In PMC9456187, “The Ambivalence of Connexin43 Gap Peptides in Cardioprotection of the Isolated Heart against Ischemic Injury” (International Journal of Molecular Sciences, 2022):

How the values were obtained:
[1] = system: isolated perfused male rat hearts; experiment: Left ventricular function (LVDP, EDP) after ischemia-reperfusion, Langendorff-perfused heart; set-up: species or system male Wistar rat; settings: % recovery of initial preischemic LVDP after 30 min ischemia and 120 min reperfusion; peptide during IPC
Protocol: (§1) All experiments were approved by the Norwegian animal research authority and were performed according to the Norwegian Animal Welfare Act and the European Convention for the Protection of Vertebrate Animals Used for Experimental and other Scientific Purposes (ETS No. 123 and 2010/63/EU). Male Wistar rats 250–350 g (Charles River, UK) were anesthetized with pentobarbital (100 mg/kg i.p.) and heparinized (300 IU i.p.), the chest opened and the heart removed.
The heart was immediately submerged in an ice-cold buffer and quickly mounted on the perfusion apparatus, where it was perfused with the Krebs–Henseleit buffer (gassed with 5% CO2 and 95%O2) in a constant pressure Langendorff setup (100 cm H2O). The temperature was kept at 37 °C during the whole experiment by keeping the heart submerged in a heated buffer. Left ventricular pressure was recorded using a balloon catheter connected to a pressure transducer. Coronary flow was measured by timed collections of perfusate.
Hearts were stabilized for 15 min, then either subjected to 30 min of global ischemia and 2 h of reperfusion or preconditioning with 3 cycles of 5 min of ischemia and reperfusion (IPC) before 30 min of global ischemia and 2 h of reperfusion. Care was taken to secure controls corresponding in time and rat batch with the intervention experiments. […]

[2] = system: subsarcolemmal mitochondria isolated from perfused rat hearts; experiment: High-resolution respirometry of isolated subsarcolemmal mitochondria; assay type: biochemical, male Wistar rat; settings: pH 7.4, 37 °C; for Oxygen flux, +Oligomycin: oligomycin 4 µg/mL; for Oxygen flux, +Oligomycin / Oxygen flux, +ADP 50 µM / Oxygen flux, Glutamate + Maleate / Oxygen flux, OXPHOS Saturating +ADP 2.5 mM / Oxygen flux, State 4 (LEAK ATP): mean ± SEM, n = 3; for Oxygen flux, +ADP 50 µM / Oxygen flux, Glutamate + Maleate / Oxygen flux, OXPHOS Saturating +ADP 2.5 mM / Oxygen flux, State 4 (LEAK ATP): 10 min preincubation on ice
Protocol: as §1
Hearts were control perfused or subjected to IPC. Isolation of mitochondria was performed using the procedure described by Palmer et al. (1977) with minor modifications. All procedures were performed on ice or at 4 °C. Briefly, the ventricles were removed, weighed and placed in the buffer containing (in mM): 100 KCl, 50 MOPS, 1 EGTA, 5 MgSO4, 1 ATP and pH 7.4. Heart tissue was minced with scissors in a small volume of buffer. Buffer plus bovine serum albumin BSA (2 mg/mL) were added, and the tissue suspension was homogenized with Polytron for 7 s and thereafter with two strokes of a Potter-Elvehjem homogenizer (Glas-Col, Terre Haute, IN, USA) and centrifuged at 590× g for 10 min at 4 °C. The supernatant was filtered through a nylon net (NITEX 300 lm; Yulee, FL, USA). Supernatants now containing mitochondria mainly from the subsarcolemmal compartment (SSM fraction) were centrifuged at 3000× g for 10 min at 4 °C, and the SSM pellet was again resuspended in the buffer plus BSA and centrifuged at 3000× g for 10 min. The pellet was resuspended in the buffer containing (in mM): 100 KCl, 50 MOPS 50, 0.5 EGTA and pH 7.4 and centrifuged at 3000× g for 10 min at 4 °C. The final pellet was resuspended in this buffer and left on ice for 30 min for stabilization of membranes.
Measurement of mitochondrial oxygen consumption was performed in an oxygraph (Oxygraph 2k; Oroboros Instruments, Innsbruck, Austria) using a respiration medium [100 KCl; 50 MOPS; 1 EGTA; 5 KH2PO4 (all in mM); BSA 1 mg mL) and pH = 7.4] in a closed 2 mL chamber at 37 °C. Glutamate (5.0 mM) and malate (2.5 mM) were used as substrates. After obtaining stable respiration O2 flux (nmol O2/min/mL), ADP was added to a final concentration of 50 µM to measure coupled respiration. After depletion of ADP and stable respiration, a saturating ADP amount (2.5 mM) was added to obtain max coupled respiration (OxPhos). Finally, oligomycin was added to a final concentration of 4 µg/mL to inhibit the ATP-synthase, and a stable state oligomycin measurement was recorded. At the end of the experiments, protein content was estimated by the Bradford method, and citrate synthase activity was measured. Results of O2 flux measurements (nmol O2/min) were normalized to citrate synthase activity (IU µmol/min) in the sample. Phosphate/oxygen ratio (P/O ratio) was calculated as ADP phosphorylated divided by oxygen molecules consumed. The respiratory control ratio (RCR) was calculated as the ratio between max state 3 (OxPhos) and […].
In order to assess the effect of Gap26 and Gap27 on mitochondrial respiration, peptides in concentrations 0.5, 5.0 and 50.0 µM were added to the isolated mitochondria. After 10 min preincubation on ice 60 µL of the suspension was added to the oxygraphy, and peptide concentration was adjusted to the new volume, so the final peptide concentration was the same during the whole experiment. Each subgroup consisted of samples from 3–4 hearts, and care was taken to minimize variability by testing the different Gap peptides and concentrations concomitantly in every heart at the same time using multiple respiratory chambers.
Statistical analysis was performed by SigmaPlot version 14.5 (Systate Software Inc. Chicago, IL, USA) using one-way or two-way ANOVA followed by the Holms Sidac method as a post hoc test when appropriate. Results are presented as mean ± SEM except for binding kinetics, which is presented as mean ± SD (n = 3–4).

[3] = control hearts (crt), peptide 0.5 µM
[4] = control hearts (crt), peptide 5 µM
[5] = control hearts (crt), peptide 50 µM

Sequence: KQIEKKFK [Gap19]
- Recovery of LVDP, Gap peptide combined with IPC (in words) [1]: significant increase in % recovery of LVDP (p < 0.05)
- Mitochondrial respiration / average oxygen flux, RCR or P/O ratio (in words) ([2]; Gap peptides 0.5, 5, 50 µM added in vitro to isolated mitochondria from control or IPC hearts, glutamate + malate): not able to detect significant change
- Oxygen flux, +Oligomycin ([2]; IPC hearts, peptide 0.5 µM): 37.8 ± 7.4 nmol O2 (µmol IU CS Activity)^−1
- Oxygen flux, +ADP 50 µM ([2]; IPC hearts, peptide 0.5 µM): 69.8 ± 28.0 nmol O2 (µmol IU CS Activity)^−1
- Oxygen flux, Glutamate + Maleate ([2]; IPC hearts, peptide 0.5 µM): 15.2 ± 4.2 nmol O2 (µmol IU CS Activity)^−1
- Oxygen flux, OXPHOS Saturating +ADP 2.5 mM ([2]; IPC hearts, peptide 0.5 µM): 92.5 ± 25.1 nmol O2 (µmol IU CS Activity)^−1
- Oxygen flux, State 4 (LEAK ATP) ([2]; IPC hearts, peptide 0.5 µM): 21.2 ± 5.3 nmol O2 (µmol IU CS Activity)^−1
- Oxygen flux, +Oligomycin ([2]; IPC hearts, peptide 5 µM): 39.0 ± 3.7 nmol O2 (µmol IU CS Activity)^−1
- Oxygen flux, +ADP 50 µM ([2]; IPC hearts, peptide 5 µM): 71.4 ± 7.5 nmol O2 (µmol IU CS Activity)^−1
- Oxygen flux, Glutamate + Maleate ([2]; IPC hearts, peptide 5 µM): 15.9 ± 1.7 nmol O2 (µmol IU CS Activity)^−1
- Oxygen flux, OXPHOS Saturating +ADP 2.5 mM ([2]; IPC hearts, peptide 5 µM): 98.3 ± 10.5 nmol O2 (µmol IU CS Activity)^−1
- Oxygen flux, State 4 (LEAK ATP) ([2]; IPC hearts, peptide 5 µM): 21.0 ± 2.6 nmol O2 (µmol IU CS Activity)^−1
- Oxygen flux, +Oligomycin ([2]; IPC hearts, peptide 50 µM): 44.2 ± 7.5 nmol O2 (µmol IU CS Activity)^−1
- Oxygen flux, +ADP 50 µM ([2]; IPC hearts, peptide 50 µM): 76.8 ± 21.6 nmol O2 (µmol IU CS Activity)^−1
- Oxygen flux, Glutamate + Maleate ([2]; IPC hearts, peptide 50 µM): 19.6 ± 6.1 nmol O2 (µmol IU CS Activity)^−1
- Oxygen flux, OXPHOS Saturating +ADP 2.5 mM ([2]; IPC hearts, peptide 50 µM): 116.2 ± 37.7 nmol O2 (µmol IU CS Activity)^−1
- Oxygen flux, State 4 (LEAK ATP) ([2]; IPC hearts, peptide 50 µM): 24.0 ± 6.1 nmol O2 (µmol IU CS Activity)^−1
- Oxygen flux, +Oligomycin [2, 3]: 42.8 ± 4.5 nmol O2 (µmol IU CS Activity)^−1
- Oxygen flux, +ADP 50 µM [2, 3]: 68.9 ± 6.5 nmol O2 (µmol IU CS Activity)^−1
- Oxygen flux, Glutamate + Maleate [2, 3]: 16.6 ± 5.0 nmol O2 (µmol IU CS Activity)^−1
- Oxygen flux, OXPHOS Saturating +ADP 2.5 mM [2, 3]: 89.2 ± 35.6 nmol O2 (µmol IU CS Activity)^−1
- Oxygen flux, State 4 (LEAK ATP) [2, 3]: 23.8 ± 5.2 nmol O2 (µmol IU CS Activity)^−1
- Oxygen flux, +Oligomycin [2, 4]: 43.5 ± 2.6 nmol O2 (µmol IU CS Activity)^−1
- Oxygen flux, +ADP 50 µM [2, 4]: 75.1 ± 11.3 nmol O2 (µmol IU CS Activity)^−1
- Oxygen flux, Glutamate + Maleate [2, 4]: 16.6 ± 2.6 nmol O2 (µmol IU CS Activity)^−1
- Oxygen flux, OXPHOS Saturating +ADP 2.5 mM [2, 4]: 113.7 ± 12.9 nmol O2 (µmol IU CS Activity)^−1
- Oxygen flux, State 4 (LEAK ATP) [2, 4]: 22.1 ± 1.6 nmol O2 (µmol IU CS Activity)^−1
- Oxygen flux, +Oligomycin [2, 5]: 44.6 ± 5.1 nmol O2 (µmol IU CS Activity)^−1
- Oxygen flux, +ADP 50 µM [2, 5]: 78.9 ± 14.0 nmol O2 (µmol IU CS Activity)^−1
- Oxygen flux, Glutamate + Maleate [2, 5]: 18.2 ± 0.9 nmol O2 (µmol IU CS Activity)^−1
- Oxygen flux, OXPHOS Saturating +ADP 2.5 mM [2, 5]: 115.3 ± 8.7 nmol O2 (µmol IU CS Activity)^−1
- Oxygen flux, State 4 (LEAK ATP) [2, 5]: 24.8 ± 3.0 nmol O2 (µmol IU CS Activity)^−1
